Experimental data reported in paper PMC11359040, “Long-Circulating and Brain-Targeted Liposomes Loaded with Isoliquiritigenin: Formation, Characterization, Pharmacokinetics, and Distribution” (Pharmaceutics, 2024).

Assay: Concentration of free isoliquiritigenin in saturated aqueous phase by HPLC
Assay type: physicochemical
Protocol: A total of 100 μL of ISL-LP solution was added to 900 μL of methanol and then subjected to vortex shaking for 10 min to disrupt the liposome structure. Following centrifugation at a speed of 13,000 rpm and a temperature of 4 °C for 10 min, 100 μL of the supernatant was diluted with methanol and then filtered through 0.22 μm membranes. Subsequently, 15 μL of the solution was injected into a high-performance liquid chromatography system (HPLC, Agilent 1100, Santa Clara, CA, USA) to detect the concentration of ISL according to the method previously reported. Before these steps, we quantified the concentration of free isoliquiritigenin in the saturated aqueous phase by HPLC. […] The drug loading (DL) and EE of ISL-LP were calculated according to Equations (1) and (2):EE (%) = (Wloaded/Wadded) × 100%(1) DL (%) = (Wloaded/Wtotal) × 100%(2) where Wloaded represents the amount of ISL loaded, Wadded denotes the weight of ISL added, and Wtotal signifies the weight of liposomes.

concentration of free isoliquiritigenin in the saturated aqueous phase: below the detection limit
SMILES: O=C(/C=C/c1ccc(O)cc1)c1ccc(O)cc1O [isoliquiritigenin, Isoliquiritigenin]
